The results in this text go back to patent US9073909B2, “[1,3]oxazines” (HOFFMANN-LA ROCHE INC., priority 2011, dated 2015).

The target of series [1] is T1, BACE1 (Homo sapiens, UniProt P56817).
T1 construct: from tissue; host or cells: human brain tissue slices
In words: Cellular Aβ-lowering assay (BACE1 cell act. Aβ40). The following applies: HEK293 cells stably expressing human APP695; Aβ40 in supernatant. Type of series: cell-based. On the procedure: a) Human HEK293 cells which are stably transfected with a vector expressing a cDNA of the human APP wt gene (APP695) were used to assess the potency of the compounds in a cellular assay. The cells were seeded in 96-well microtiter plates in cell culture medium (Iscove, plus 10% (v/v) fetal bovine serum, glutamine, penicillin/streptomycin) to about 80% confluence and the compounds were added at a 10× concentration in 1/10 volume of medium without FCS containing 8% DMSO (final concentration of DMSO was kept at 0.8% v/v). After 18-20 hrs incubation at 37° C. and 5% CO2 in a humidified incubator the culture supernatant was harvested for the determination of Aβ40 concentrations. […] After stopping the reaction with one volume 1 N H2SO4 the reaction was measured in an ELISA reader at 450 nm wavelength. The concentrations of Aβ in the culture supernatants were calculated from a standard curve obtained with known amounts of pure Aβ peptide. […]
In a Perkin-Elmer White Optiplate-384 (Cat#6007290), 2 μl culture supernatants were combined with 2 μl of a 10× AlphaLISA Anti-hAβAcceptor beads+Biotinylated Antibody Anti-Aβ 1-40 Mix (50 μg/mL/5 nM). […] Light Emission at 615 nm was then recorded using EnVision-Alpha Reader. Levels of Aβ40 in the culture supernatants were calculated as percentage of maximum signal (cells treated with 1% DMSO without inhibitor). […]

In series [2] the test system is BACE1. The following applies: baboon, i.v. bolus, PET 0 to 120 minutes.
Procedure: The PET experiments were carried out in male baboons (papio anubis). Animals were fasted for 12 hours prior to the PET study. Baboons were initially sedated intramuscularly with Ketamine hydrochloride with restraint dosages of 5-7 mg/kg to achieve a superficial level of anesthesia and then maintained on continuous Propofol intravenous infusion @ 0.3-0.4 mg/kg/h ([…] ® Injectable Emulsion). Circulatory volume was maintained by infusion of isotonic saline. A femoral arterial catheter was inserted for blood sampling. Physiological vital signs including heart rate, ECG, blood pressure and oxygen saturation were continuously monitored throughout the study. The animal was positioned in an ECAT HRRT® brain PET scanner (High Resolution Research Tomograph, CPS Innovations, Inc., Knoxville, Tenn.). The head of the animal was fitted with a thermoplastic mask that was attached to a head holder for reproducible fixation. A 6 min transmission scan with a 1 mCi Cs-137 point source was initially done for attenuation correction. […] The radioactivity of a VOI at time T was calculated as the weighted mean and expressed in mCi/ml. […]
SUV (%)=radioactivity (nCi/ml)/106/(dose (mCi)/body weight (kg)×103)×100, where numbers were used to make the unit for radioactivity equivalent between voxel radioactivity and radioactivity dose (106) and between body weight and voxel volume (103).
The target in series [3] is T2, BACE1 (Rattus norvegicus, UniProt P56819).
T2 construct: from tissue; host or cells: rat brain (sagittal sections in vitro; brain of living rats for the ex vivo study)
T2 sequence (P56819 46-501): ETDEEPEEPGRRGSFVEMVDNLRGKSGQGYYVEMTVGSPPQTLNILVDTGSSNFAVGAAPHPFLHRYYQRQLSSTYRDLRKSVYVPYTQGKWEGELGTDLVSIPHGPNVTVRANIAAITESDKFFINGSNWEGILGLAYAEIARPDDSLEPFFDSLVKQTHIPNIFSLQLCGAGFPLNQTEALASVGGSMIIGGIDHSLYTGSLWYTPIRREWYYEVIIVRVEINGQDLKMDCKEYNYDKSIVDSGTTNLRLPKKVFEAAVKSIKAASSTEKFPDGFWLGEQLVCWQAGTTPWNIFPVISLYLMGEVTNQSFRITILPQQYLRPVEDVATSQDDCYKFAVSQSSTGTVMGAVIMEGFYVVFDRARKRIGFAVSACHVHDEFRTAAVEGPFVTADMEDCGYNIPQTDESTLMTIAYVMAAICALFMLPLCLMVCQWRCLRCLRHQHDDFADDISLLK
In words: In vitro autoradiography in rat brain sections. Type of series: binding. The source says: The distribution of [^3H]-5-but-2-ynyloxy-pyrazine-2-carboxylic acid [3-((R)-2-amino-5,5-difluoro-4-methyl-5,6-dihydro-4H-[1,3]oxazin-4-yl)-4-fluoro-phenyl]-amide binding sites as well as the binding specificity for BACE1 was investigated by in vitro autoradiography using male Sprague-Dawley rats. Animals were sacrificed, their brains were rapidly removed and frozen in dry ice powder. Ten μm-thick sagittal sections were cut in a Cryostat microtome and thaw-mounted on adhesion glass slides. Brain sections were first incubated for 10 min in Ringer buffer (NaCl 120 mM, KCl 5 mM, CaCl2 2 mM, MgCl2 1 mM, Tris-HCl 50 mM pH 7.4) at RT and then for 60 min in Ringer buffer containing either 1 nM or 10 nM [^3H]-5-but-2-ynyloxy-pyrazine-2-carboxylic acid [3-((R)-2-amino-5,5-difluoro-4-methyl-5,6-dihydro-4H-[1,3]oxazin-4-yl)-4-fluoro-phenyl]-amide. For the evaluation of non-specific-binding (NSB) of the radiotracer an additional series of sections was incubated with Ringer buffer containing the radiotracer and a reference BACE1 inhibitor ((S)-3-(3,6-dihydro-2H-pyran-4-yl)-7-(2-fluoropyridin-3-yl)-5′H-spiro[chromeno[2,3-c]pyridine-5,5′-oxazol]-2′-amine, CAS Nr 1215869-02-5; example 294 in WO2010030954) at 10 μM. At the end of the incubation, sections were rinsed 3×5 min in ice-cold Ringer buffer and then rapidly dipped once in distilled water at 4° C. Slide-mounted brain sections were dried under a flow of cold air for 3 h and exposed together with [^3H]-microscale to a Fuji Imaging plate for 5 days. The imaging plate was then scanned in a high resolution Fuji BAS reader. The total amount of radiotracer bound to the brain areas of interest (TB) was measured using the MCID image analysis program and expressed as fmol of bound radiotracer/mg of protein. The amount of [^3H]-5-but-2-ynyloxy-pyrazine-2-carboxylic acid [3-((R)-2-amino-5,5-difluoro-4-methyl-5,6-dihydro-4H-[1,3]oxazin-4-yl)-4-fluoro-phenyl]-amide specifically bound to BACE1 (SB) was calculated according to the formula SB=TB−NSB. […]

Series [4] has as its target T2, BACE1. In words: Ex vivo autoradiography in rats after i.v. tracer injection. On the procedure: The in vivo characteristics of [^3H]-5-but-2-ynyloxy-pyrazine-2-carboxylic acid [3-((R)-2-amino-5,5-difluoro-4-methyl-5,6-dihydro-4H-[1,3]oxazin-4-yl)-4-fluoro-phenyl]-amide for imaging BACE1 were analyzed by an ex vivo autoradiographical approach using young male Sprague-Dawley rats. Animals were intravenously injected with 1 mCi/kg [^3H]-5-but-2-ynyloxy-pyrazine-2-carboxylic acid [3-((R)-2-amino-5,5-difluoro-4-methyl-5,6-dihydro-4H-[1,3]oxazin-4-yl)-4-fluoro-phenyl]-amide corresponding to 37.7 nmol/kg and sacrificed at various time points post injection. To test the specificity of tracer binding in vivo, rats were pre-administered with 10 mg/kg of a reference BACE1 inhibitor ((S)-3-(3,6-dihydro-2H-pyran-4-yl)-7-(2-fluoropyridin-3-yl)-5′H-spiro[chromeno[2,3-c]pyridine-5,5′-oxazol]-2′-amine, CAS Nr 1215869-02-5; example 294 in WO2010030954) (p.o.) 3 h prior to tracer injection. Animals were sacrificed at various time points post injection (5, 15, 30, 60, 120 min p.i.), their brains were rapidly removed and frozen in dry ice powder. Ten μm-thick sagittal sections were cut in a Cryostat microtome and thaw-mounted on adhesion glass slides. Slide-mounted brain sections were dried under a flow of cold air for 3 h and exposed together with [^3H]-microscale to a Fuji Imaging plate for 5 days. The imaging plate was then scanned in a high resolution Fuji BAS reader. The total amount of radiotracer bound to the brain areas of interest (TB) was measured using the MCID image analysis program and expressed as fmol of bound radiotracer/mg of protein. The amount of [^3H]-5-but-2-ynyloxy-pyrazine-2-carboxylic acid [3-((R)-2-amino-5,5-difluoro-4-methyl-5,6-dihydro-4H-[1,3]oxazin-4-yl)-4-fluoro-phenyl]-amide specifically bound to BACE1 (SB) was calculated according to the formula SB=TB−NSB.

T1 sequence (P56817 46-501): as the sequence (P56819 46-501) above, with S82G, I162V, I165L, T180S, A182V, V340I, A393L, H443Q counted along it

`CC#CCOc1cnc(C(=O)Nc2ccc(F)c([C@@]3(C)N=C(N)OCC3(F)F)c2)cn1` [Example 1, 5-But-2-ynyloxy-pyrazine-2-carboxylic acid [3-((R)-2-amino-5,5-difluoro-4-methyl-5,6-dihydro-4H-[1,3]oxazin-4-yl)-4-fluoro-phenyl]-amide] showed an IC50 on BACE1 [1] of 1.1 nM.
With `C[C@]1(c2cc(NC(=O)c3cnc(OCC#C[11CH3])cn3)ccc2F)N=C(N)OCC1(F)F` [Example 3, [^11C]-5-But-2-ynyloxy-pyrazine-2-carboxylic acid [3-((R)-2-amino-5,5-difluoro-4-methyl-5,6-dihydro-4H-[1,3]oxazin-4-yl)-4-fluoro-phenyl]-amide], the “brain uptake of radiotracer” value in the series with BACE1 [2] was “rapidly taken up in multiple brain areas”.
Regarding “[^3H]-5-But-2-ynyloxy-pyrazine-2-carboxylic acid [3-((R)-2-amino-5,5-difluoro-4-methyl-5,6-dihydro-4H-[1,3]oxazin-4-yl)-4-fluoro-phenyl]-amide [Example 2]”, on BACE1 [3] (1 nM example 2 co-incubated with 10 μM specific BACE1 inhibitor A, rat brain sections), the “reduction of tracer binding” value is recorded as “more than 80%”. In addition, the “brain regions with highest densities of binding sites” value at BACE1 [3] (male Sprague-Dawley rat sagittal brain sections) is “dentate gyms and the CA3 region of the hippocampus, the cerebellum, pallidum and substantia nigra”. For the same compound, the “distribution of binding sites in the rat brain” value at BACE1 [3] (male Sprague-Dawley rat sagittal brain sections, 1 nM or 10 nM tracer) is recorded as “widespread distribution”. For the same compound, on BACE1 [4] (10 mg/kg reference BACE1 inhibitor p.o. 3 h prior to tracer injection), the “in vivo binding after pre-treatment with BACE1 ligand A (specificity)” value was “clearly reduced”. In addition, the “in vivo distribution pattern of binding (regions of highest accumulation)” value at BACE1 [4] (1 mCi/kg i.v., ex vivo autoradiography) is “highest accumulation in the dentate gyms and the CA3 region of the hippocampus, the cerebellum, pallidum and substantia nigra”. Also, at BACE1 [4] (5, 15, 30, 60, 120 min post injection), the “wash-out kinetics of tracer binding” value is listed as “favorable wash-out kinetics”.
